What was measured:
Abutilon [1] = assay: Pre-emergence test; assay type: in vivo; conditions: Abutilon, 504 h, greenhouse, after three weeks, read-out: degree of damage to the plants (% damage), Abutilon; for pest or weed control at 1000 g/ha: 1000 g of ai./ha; for pest or weed control at 500 g/ha: 500 g of ai./ha
Protocol: (§1) Solvent: 5 parts by weight of acetone
(§2) Emulsifier: 1 part by weight of alkylaryl polyglycol ether
(§3) To produce a suitable preparation of active compound, 1 part by weight of active compound is mixed with the stated amount of solvent, the stated amount of emulsifier is added and the concentrate is diluted with water to the desired concentration.
(§4) Seeds of the test plants are sown in normal soil. After about 24 hours, the soil is watered with the preparation of active compound. The amount of water per unit area is advantageously kept constant. The concentration of active compound in the preparation is immaterial, only the application rate of active compound per unit area matters.
(§5) After three weeks, the degree of damage to the plants is scored visually in % damage in comparison to the development of the untreated control.
(§6) 0%=no effect (like untreated control)

Amaranthus [2] = assay: Pre-emergence test; assay type: in vivo; conditions: Amaranthus, 504 h, greenhouse, after three weeks, read-out: degree of damage to the plants (% damage), Amaranthus; for pest or weed control at 1000 g/ha: 1000 g of ai./ha; for pest or weed control at 500 g/ha: 500 g of ai./ha
Protocol: as §1, §2, §3, §4, §5, §6

Maize = assay: Pre-emergence test; assay type: in vivo; conditions: greenhouse, 1000 g of ai./ha, after three weeks
Protocol: as §1, §2, §3, §4, §5, §6

Sinapis = assay: Pre-emergence test; assay type: in vivo; conditions: greenhouse, 1000 g of ai./ha, after three weeks
Protocol: as §1, §2, §3, §4, §5, §6

weeds [3] = assay: Pre-emergence test; assay type: in vivo
Protocol: as §1, §2, §3, §4, §5, §6

Abutilon [4] = assay: Post-emergence test; assay type: in vivo; conditions: greenhouse, 1000 g of ai./ha, after three weeks
Protocol: as §1, §2, §3
(§7) Test plants which have a height of 5-15 cm are sprayed with the preparation of active compound such that the particular amounts of active compounds desired are applied per unit area. The concentration of the spray liquor is chosen so that the particular amounts of active compound desired are applied in 1000 l of water/ha.
(§8) After three weeks, the degree of damage to the plants is scored visually in % damage, in comparison to the untreated control.
as §6

Alopecurus [5] = assay: Post-emergence test; assay type: in vivo; conditions: greenhouse, 1000 g of ai./ha, after three weeks
Protocol: as §1, §2, §3, §7, §8, §6

Amaranthus [6] = assay: Post-emergence test; assay type: in vivo; conditions: greenhouse, after three weeks; for pest or weed control at 500 g/ha: 500 g of ai./ha
Protocol: as §1, §2, §3, §7, §8, §6

Galium [7] = assay: Post-emergence test; assay type: in vivo; conditions: greenhouse, 1000 g of ai./ha, after three weeks
Protocol: as §1, §2, §3, §7, §8, §6

Setaria [8] = assay: Post-emergence test; assay type: in vivo; conditions: greenhouse, after three weeks; for pest or weed control at 500 g/ha: 500 g of ai./ha
Protocol: as §1, §2, §3, §7, §8, §6

Xanthium = assay: Post-emergence test; assay type: in vivo; conditions: greenhouse, 1000 g of ai./ha, after three weeks
Protocol: as §1, §2, §3, §7, §8, §6

weeds [9] = assay: Post-emergence test; assay type: in vivo
Protocol: as §1, §2, §3, §7, §8, §6

Echinochloa [10] = assay: Post-emergence test; assay type: in vivo; conditions: greenhouse, 500 g of ai./ha, after three weeks
Protocol: as §1, §2, §3, §7, §8, §6

Ipomoea = assay: Post-emergence test; assay type: in vivo; conditions: greenhouse, 500 g of ai./ha, after three weeks
Protocol: as §1, §2, §3, §7, §8, §6

Polygonum [11] = assay: Post-emergence test; assay type: in vivo; conditions: greenhouse, 500 g of ai./ha, after three weeks
Protocol: as §1, §2, §3, §7, §8, §6

Solanum = assay: Post-emergence test; assay type: in vivo; conditions: greenhouse, 500 g of ai./ha, after three weeks
Protocol: as §1, §2, §3, §7, §8, §6

Wheat [12] = assay: Post-emergence test; assay type: in vivo; conditions: greenhouse, 500 g of ai./ha, after three weeks
Protocol: as §1, §2, §3, §7, §8, §6

Datura = assay: Pre-emergence test; assay type: in vivo; conditions: greenhouse, 500 g of ai./ha, after three weeks
Protocol: as §1, §2, §3, §4, §5, §6

Digitaria = assay: Pre-emergence test; assay type: in vivo; conditions: greenhouse, 500 g of ai./ha, after three weeks
Protocol: as §1, §2, §3, §4, §5, §6

Echinochloa [13] = assay: Pre-emergence test; assay type: in vivo; conditions: greenhouse, 500 g of ai./ha, after three weeks
Protocol: as §1, §2, §3, §4, §5, §6

Polygonum [14] = assay: Pre-emergence test; assay type: in vivo; conditions: greenhouse, 500 g of ai./ha, after three weeks
Protocol: as §1, §2, §3, §4, §5, §6

Veronica = assay: Pre-emergence test; assay type: in vivo; conditions: greenhouse, 500 g of ai./ha, after three weeks
Protocol: as §1, §2, §3, §4, §5, §6

Wheat [15] = assay: Pre-emergence test; assay type: in vivo; conditions: greenhouse, 500 g of ai./ha, after three weeks
Protocol: as §1, §2, §3, §4, §5, §6

Alopecurus [16] = assay: Pre-emergence test; assay type: in vivo; conditions: greenhouse, 1000 g of ai./ha, after three weeks
Protocol: as §1, §2, §3, §4, §5, §6

Galium [17] = assay: Pre-emergence test; assay type: in vivo; conditions: greenhouse, 1000 g of ai./ha, after three weeks
Protocol: as §1, §2, §3, §4, §5, §6

Setaria [18] = assay: Pre-emergence test; assay type: in vivo; conditions: greenhouse, 1000 g of ai./ha, after three weeks
Protocol: as §1, §2, §3, §4, §5, §6

[19] = Amaranthus, 504 h, read-out: degree of damage to the plants (% damage), Amaranthus
[20] = Setaria, 504 h, read-out: degree of damage to the plants (% damage), Setaria

Row | SMILES | pest or weed control at 1000 g/ha (Abutilon [1]) | pest or weed control at 1000 g/ha (Amaranthus [2]) | activity against weeds (weeds [3]) | degree of damage to the plants (% damage), Abutilon (Abutilon [4]) | degree of damage to the plants (% damage), Alopecurus (Alopecurus [5]) | degree of damage to the plants (% damage), Galium (Galium [7]) | degree of damage to the plants (% damage), Xanthium (Xanthium) | activity against weeds (weeds [9]) | pest or weed control at 500 g/ha (Amaranthus [6]; [19]) | degree of damage to the plants (% damage), Echinochloa (Echinochloa [10]) | degree of damage to the plants (% damage), Ipomoea (Ipomoea) | degree of damage to the plants (% damage), Polygonum (Polygonum [11]) | pest or weed control at 500 g/ha (Setaria [8]; [20]) | degree of damage to the plants (% damage), Solanum (Solanum) | degree of damage to the plants (% damage), Wheat (Wheat [12]) | pest or weed control at 500 g/ha (Abutilon [1]) | pest or weed control at 500 g/ha (Amaranthus [2]) | degree of damage to the plants (% damage), Datura (Datura) | degree of damage to the plants (% damage), Digitaria (Digitaria) | degree of damage to the plants (% damage), Echinochloa (Echinochloa [13]) | also measured
1 | CCC(COc1ccccc1)Nc1nc(N)nc(C(F)(F)F)n1 (stereo not shown) [Example 2] | 80% | 100% | strong activity | 100% | 70% | 100% | 100% | strong activity |  |  |  |  |  |  |  |  |  |  |  |  | degree of damage to the plants (% damage), Maize (Maize): 20%; degree of damage to the plants (% damage), Sinapis (Sinapis): 100%; pest or weed control at 1000 g/ha (Amaranthus [6]; Amaranthus, 504 h, 1000 g of ai./ha, read-out: degree of damage to the plants (% damage), Amaranthus): 100%; pest or weed control at 1000 g/ha (Setaria [8]; Setaria, 504 h, 1000 g of ai./ha, read-out: degree of damage to the plants (% damage), Setaria): 100%; melting point: 100 °C
2 | CCC(COc1ccccc1)Nc1nc(N)nc(C(F)(F)F)n1 (stereo not shown) [Example 4] |  |  |  | 100% | 70% | 80% | 100% | strong activity |  |  |  |  |  |  |  |  |  |  |  |  | degree of damage to the plants (% damage), Amaranthus (Amaranthus [6]; 1000 g of ai./ha): 100%; degree of damage to the plants (% damage), Setaria (Setaria [8]; 1000 g of ai./ha): 100%
3 | CCC(CCc1cccs1)Nc1nc(N)nc(C(F)(F)F)n1 (stereo not shown) [Example 11] |  |  |  |  |  |  |  | strong activity | 100% | 80% | 100% | 100% | 95% | 100% | 10% |  |  |  |  |  | 
4 | CCC(CCc1ccsc1)Nc1nc(N)nc(C(F)(F)F)n1 (stereo not shown) [Example 12] |  |  | strong activity |  |  |  |  | strong activity | 100% | 90% | 100% | 100% | 95% | 100% | 10% | 100% | 100% | 100% | 80% | 100% | degree of damage to the plants (% damage), Polygonum (Polygonum [14]): 100%; degree of damage to the plants (% damage), Veronica (Veronica): 100%; degree of damage to the plants (% damage), Wheat (Wheat [15]): 0%
5 | CCC(CCc1ccsc1)Nc1nc(N)nc(C(C)F)n1 (stereo not shown) [Example 19] |  |  | strong activity |  |  |  |  | strong activity | 100% | 100% | 100% | 100% | 100% | 100% |  | 100% | 100% | 100% | 100% | 100% | degree of damage to the plants (% damage), Polygonum (Polygonum [14]): 100%; degree of damage to the plants (% damage), Veronica (Veronica): 100%; degree of damage to the plants (% damage), Wheat (Wheat [15]): 0%
6 | CCC(CCc1ccccn1)Nc1nc(N)nc(C(C)F)n1 (stereo not shown) [Example 21] | 90% | 95% | strong activity |  |  |  |  |  |  |  |  |  |  |  |  |  |  |  |  |  | degree of damage to the plants (% damage), Alopecurus (Alopecurus [16]): 100%; degree of damage to the plants (% damage), Galium (Galium [17]): 80%; degree of damage to the plants (% damage), Setaria (Setaria [18]): 90%

Reference: patent publication US6403794B2, “Substituted 2-amino-4-alkylamino-1,3,5-triazines as herbicides” (Bayer Aktiengesellschaft, priority 1996, dated 2002)
